# Test results as given in patent publication US20090030015A1, “NOVEL MULTI-CYCLIC COMPOUNDS” (REVOTAR BIOPHARMACEUTICALS AG, priority 2005, published 2009).
# Key:
# [1] = molecular target: T1, human E-Selectin-IgG-chimera (Homo sapiens, UniProt P16581); assay: Sialyl Lewis X Tyrosine Sulfate Assay (sLex TSA), E-selectin; format: binding; conditions: sLexTSA; for E-Selectin [% inhib.]: in vitro inhibition at 100 μM
# T1 construct: fused on or other part: human IgG Fc part, captured on the plate by goat anti human Fc antibody; a tag, no second protein
# T1 sequence (P16581 22-175 limits assumed): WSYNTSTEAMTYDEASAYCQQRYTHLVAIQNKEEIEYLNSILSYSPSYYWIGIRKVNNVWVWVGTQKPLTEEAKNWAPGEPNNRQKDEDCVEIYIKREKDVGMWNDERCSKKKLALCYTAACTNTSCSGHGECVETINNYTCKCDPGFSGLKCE
# Description: (§1) Sialyl Lewis^X Tyrosine Sulfate Assay (sLe^x TSA):
# (§2) Compounds of the present invention are assayed on a molecular level for their ability to inhibit the binding of P-, L-, or E-selectin chimeric molecules to sLe^x and tyrosinesulfate residues linked to a polymeric matrix as a PSGL-1 substitute. Selected IC50-values are determined.
# (§3) Microtiter plates are coated overnight in carbonate buffer pH9.6 with goat anti human Fc mAB (10 μg/ml). After washing in assay buffer (25 mM 4-(2-hydroxyethyl)-1-piperazineethanesulfonic acid (HEPES), 150 mM NaCl, 1 mM CaCl2 pH7.4) and blocking (3% bovine serum albumin (BSA) in assay buffer) plates are incubated for 2 h at 37° C. with human P-Selectin-IgG-chimera (0.61 nM respectively 150 ng/mL) or human L-Selectin-IgG-chimera (0.61 nM respectively 89 ng/mL) or human E-Selectin-IgG-chimera (0.61 nM respectively 131 ng/mL). 5 μl of sLe^x-tyrosine sulfate polyacrylamide (1 mg/ml) carrying 15% sLe^x, 10% Tyrosine-sulfate and 5% biotin is complexed with 20 μl Streptavidin-Peroxidase solution (1 mg/ml) and 25 μl assay buffer without CaCl2. For use in the assay, the ligand complex is diluted 1:10000 in assay buffer and further diluted 1:1 with varying amounts of compounds in assay buffer incl. 2% DMSO. This mixture is added to the wells precoated with E- or P-selectin. After incubation for 2 h at 37° C., wells are washed for six times with in assay buffer incl. 0.005% Polyoxyethylenesorbitan monolaurate (TWEEN 20), developed for 10-15 min with 20 μl 3,3′,5,5′-tetramethylbenzidine (TMB)/H2O2 substrate solution and stopped with 20 μl 1M H2SO4. Bound sLe^x-Tyrosine sulfate ligand complex is determined by measuring optical density at 450 nm vs. 620 nm in a Fusion alpha-FP reader (sold from Packard Bioscience, Dreieich, Germany).
# [2] = molecular target: T2, human P-Selectin-IgG-chimera (Homo sapiens, UniProt P16109); assay: Sialyl Lewis X Tyrosine Sulfate Assay (sLex TSA), P-selectin; format: binding; conditions: sLexTSA; for P-Selectin [% inhib.]: in vitro inhibition at 100 μM
# T2 sequence (P16109 42-771 limits assumed): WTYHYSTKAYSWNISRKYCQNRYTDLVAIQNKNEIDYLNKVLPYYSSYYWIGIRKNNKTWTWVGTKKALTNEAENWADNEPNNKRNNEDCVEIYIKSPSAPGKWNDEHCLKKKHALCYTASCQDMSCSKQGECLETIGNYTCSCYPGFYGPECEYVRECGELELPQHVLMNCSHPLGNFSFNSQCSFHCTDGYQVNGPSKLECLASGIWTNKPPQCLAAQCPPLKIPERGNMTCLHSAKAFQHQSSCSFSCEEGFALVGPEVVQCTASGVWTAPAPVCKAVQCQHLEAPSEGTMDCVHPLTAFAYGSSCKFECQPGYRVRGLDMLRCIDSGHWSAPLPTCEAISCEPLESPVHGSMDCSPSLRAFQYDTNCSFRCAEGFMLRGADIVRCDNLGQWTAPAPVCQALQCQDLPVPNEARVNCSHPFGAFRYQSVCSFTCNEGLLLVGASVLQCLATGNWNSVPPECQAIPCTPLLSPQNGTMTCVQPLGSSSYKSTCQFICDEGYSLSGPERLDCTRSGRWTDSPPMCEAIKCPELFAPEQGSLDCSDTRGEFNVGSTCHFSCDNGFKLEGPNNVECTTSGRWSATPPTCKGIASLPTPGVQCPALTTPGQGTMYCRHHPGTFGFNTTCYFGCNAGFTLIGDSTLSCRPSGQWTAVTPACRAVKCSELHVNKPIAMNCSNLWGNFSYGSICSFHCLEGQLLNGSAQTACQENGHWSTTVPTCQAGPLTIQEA
# Description: as §1, §2, §3
# [3] = molecular target: T3, human L-Selectin-IgG-chimera (Homo sapiens, UniProt P14151); assay: Sialyl Lewis X Tyrosine Sulfate Assay (sLex TSA), L-selectin; format: binding; conditions: sLexTSA; for L-Selectin [% inhib.]: in vitro inhibition at 100 μM
# T3 construct: fused on or other part: human IgG Fc part, captured on the plate by goat anti human Fc antibody; a tag, no second protein
# T3 sequence (P14151 39-318 limits assumed): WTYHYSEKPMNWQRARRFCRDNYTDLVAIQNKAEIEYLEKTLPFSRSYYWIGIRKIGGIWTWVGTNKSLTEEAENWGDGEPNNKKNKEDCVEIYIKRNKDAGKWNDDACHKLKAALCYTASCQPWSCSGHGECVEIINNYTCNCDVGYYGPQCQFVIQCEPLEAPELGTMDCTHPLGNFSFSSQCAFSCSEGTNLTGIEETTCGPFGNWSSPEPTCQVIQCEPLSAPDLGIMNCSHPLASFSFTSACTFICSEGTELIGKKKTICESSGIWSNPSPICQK
# Description: as §1, §2, §3
# [4] = tested on: human E-selectin-IgG chimera; assay: Flow chamber assay, cell adhesion and rolling under flow conditions, E-selectin; format: cell-based; conditions: normalized ratio of %-inhibition of compound divided by %-inhibition of bimosiamose; 125 μM compound; HL-60 cells; flow shear 1 dyne/cm^2
# Description: (§4) Flow Chamber Assay/Cell Adhesion and Rolling Under Flow Conditions
# (§5) To assess the capability of compounds to inhibit cell binding under dynamic conditions resembling the flow in a blood vessel, flow chamber assays addressing/testing binding of HL-60 cells/various cell lines to P-selectin, L-selectin and E-selectin chimeric molecules are performed.
# (§6) Cell attachment under flow conditions is determined using a parallel flow chamber system. A 35 mm polystyrene culture dish is coated for 1 hour at room temperature with coating buffer (50 mM tris-(hydroxymethyl)aminomethane buffer (Tris), 150 mM NaCl, 2 mM CaCl2; pH 7.4) containing human E- or P-selectin-IgG chimera at concentrations of 2.5 μg/ml or 10 μg/ml, respectively. After removal of the coating solution non specific binding sites are blocked for an additional hour with 1% BSA in coating buffer at room temperature. After washing with assay buffer (“Roswell Park Memorial Institute 1640” (RPMI 1640)+10 mM HEPES) the dish is fitted into a parallel plate laminar flow chamber (sold from Glycotech, Rockville, Md.) and mounted on an inverted phase-contrast microscope (sold from Olympus, Hamburg, Germany) equipped with a CCD camera (JVC) that is connected to a PC. Employing a peristaltic pump (sold from Ismatec, Wertheim-Mondfeld, Germany) the re-circulating system is equilibrated with assay buffer containing 125 μM compound or vehicle control (DMSO). Cells (1 million/ml) are added to the chamber and allowed to distribute for 2 minutes at a high flow rate. The flow rate is then decreased resulting in a calculated flow shear of 1 dyne/cm^2. Video sequences of 10 low power fields are digitally recorded after 5 minutes continuous flow. The percentage of inhibition is calculated from the mean number of cells per field that attached to the coated dish surface in the presence versus absence of compound […].
# [5] = tested on: human P-selectin-IgG chimera; assay: Flow chamber assay, cell adhesion and rolling under flow conditions, P-selectin; format: cell-based; conditions: normalized ratio of %-inhibition of compound divided by %-inhibition of bimosiamose; 125 μM compound; HL-60 cells; flow shear 1 dyne/cm^2
# Description: as §4, §5, §6
structure (smiles),measurement,setting,value
"O=C(CCCNC(=O)c1cc(O)cc(O)c1)Nc1cccc(C(=O)O)c1 [Compound 21, 3-[4-(3,5-Dihydroxy-benzoylamino)-butyrylamino]-benzoic acid]",E-Selectin [% inhib.],[1],40.7 % inhib.
same,P-Selectin [% inhib.],[2],3.0 % inhib.
same,L-Selectin [% inhib.],[3],18.7 % inhib.
"COC(=O)c1cccc(NC(=O)CCCNC(=O)c2cc(O)cc(O)c2)c1 [Compound 22, 3-[4-(3,5-Dihydroxy-benzoylamino)-butyrylamino]-benzoic acid methyl ester]",E-Selectin [% inhib.],[1],42.7 % inhib.
same,P-Selectin [% inhib.],[2],22.7 % inhib.
same,L-Selectin [% inhib.],[3],21.3 % inhib.
"O=C(O)CN1CCN(C(=O)CCCNC(=O)c2cc(O)cc(O)c2)CC1 [Compound 23, {4-[4-(3,5-Dihydroxy-benzoylamino)-butyryl]-piperazin-1-yl}-acetic acid]",E-Selectin [% inhib.],[1],10.5 % inhib.
same,P-Selectin [% inhib.],[2],18.9 % inhib.
same,L-Selectin [% inhib.],[3],11.6 % inhib.
"O=C(CCCNC(=O)c1cc(O)cc(O)c1)Nc1ccc(C(=O)O)cc1 [Compound 24, 4-[4-(3,5-Dihydroxy-benzoylamino)-butyrylamino]-benzoic acid]",E-Selectin [% inhib.],[1],35.9 % inhib.
same,P-Selectin [% inhib.],[2],0.5 % inhib.
same,L-Selectin [% inhib.],[3],5.9 % inhib.
"COc1ccc(CC(=O)Nc2ccc(-c3cc(C(=O)O)c(C)o3)cc2)c(OC)c1 [Compound 28, 5-{4-[2-(2,4-Dimethoxy-phenyl)-acetylamino]-phenyl}-2-methyl-furan-3-carboxylic acid]",IC50,[1],201 µM
same,IC50,[2],238 µM
same,IC50,[3],319 µM
same,E-Selectin [Ratio],[4],0.99 Ratio
same,P-Selectin [Ratio],[5],n.s.
"COc1cc(CC(=O)Nc2ccc(-c3cc(C(=O)O)c(C)o3)cc2)cc(OC)c1 [Compound 30, 5-{4-[2-(3,5-Dimethoxy-phenyl)-acetylamino]-phenyl}-2-methyl-furan-3-carboxylic acid]",IC50,[1],> 500 µM
same,IC50,[2],133 µM
same,IC50,[3],376 µM
same,E-Selectin [Ratio],[4],1.03 Ratio
same,P-Selectin [Ratio],[5],n.s.
O=C(O)CCc1cccc(NC(=O)CCCNC(=O)c2cc(O)cc(O)c2)c1 [Compound 32],E-Selectin [% inhib.],[1],35.0 % inhib.
same,P-Selectin [% inhib.],[2],1.4 % inhib.
same,L-Selectin [% inhib.],[3],13.1 % inhib.
COC(=O)CCc1cccc(NC(=O)CCCNC(=O)c2cc(O)cc(O)c2)c1 [Compound 33],E-Selectin [% inhib.],[1],38.6 % inhib.
same,P-Selectin [% inhib.],[2],10.6 % inhib.
same,L-Selectin [% inhib.],[3],27.3 % inhib.
O=C(O)Cc1cccc(NC(=O)CCCNC(=O)c2cc(O)cc(O)c2)c1 [Compound 34],E-Selectin [% inhib.],[1],41.0 % inhib.
same,P-Selectin [% inhib.],[2],12.9 % inhib.
same,L-Selectin [% inhib.],[3],18.1 % inhib.
COC(=O)Cc1cccc(NC(=O)CCCNC(=O)c2cc(O)cc(O)c2)c1 [Compound 35],E-Selectin [% inhib.],[1],40.8 % inhib.
same,P-Selectin [% inhib.],[2],15.6 % inhib.
same,L-Selectin [% inhib.],[3],19.4 % inhib.
Cc1ccc(C(=O)O)cc1NC(=O)CCCNC(=O)c1cc(O)cc(O)c1 [Compound 36],E-Selectin [% inhib.],[1],35.8 % inhib.
same,P-Selectin [% inhib.],[2],1.2 % inhib.
same,L-Selectin [% inhib.],[3],6.8 % inhib.
COC(=O)c1ccc(C)c(NC(=O)CCCNC(=O)c2cc(O)cc(O)c2)c1 [Compound 37],E-Selectin [% inhib.],[1],38.9 % inhib.
same,P-Selectin [% inhib.],[2],5.2 % inhib.
same,L-Selectin [% inhib.],[3],9.5 % inhib.
Cc1c(NC(=O)CCCNC(=O)c2cc(O)cc(O)c2)cccc1C(=O)O [Compound 38],E-Selectin [% inhib.],[1],40.9 % inhib.
same,P-Selectin [% inhib.],[2],9.4 % inhib.
same,L-Selectin [% inhib.],[3],19.3 % inhib.
O=C(CCCNC(=O)c1cc(O)cc(O)c1)NCc1ccc(C(=O)O)cc1 [Compound 39],E-Selectin [% inhib.],[1],24.8 % inhib.
same,P-Selectin [% inhib.],[2],2.9 % inhib.
same,L-Selectin [% inhib.],[3],10.9 % inhib.
COC(=O)c1ccc(CNC(=O)CCCNC(=O)c2cc(O)cc(O)c2)cc1 [Compound 40],E-Selectin [% inhib.],[1],34.4 % inhib.
same,P-Selectin [% inhib.],[2],28.2 % inhib.
same,L-Selectin [% inhib.],[3],31.1 % inhib.
"O=C(O)Cc1ccc(-c2ccccc2NC(=O)c2cncc(-c3ccc(O)cc3O)c2)s1 [Compound 73, [5-(2-{[5-(2,4-Dihydroxy-phenyl)-pyridine-3-carbonyl]-amino}-phenyl)-thiophen-2-yl]-acetic acid]",IC50,[2],260 µM
same,IC50,[3],502 µM
same,E-Selectin [Ratio],[4],0.99 Ratio
same,P-Selectin [Ratio],[5],1.20 Ratio
"Cc1oc(-c2ccc(NC(=O)c3cncc(-c4ccc(O)cc4O)c3)cc2)cc1C(=O)O [Compound 76, 5-(4-{[5-(2,4-Dihydroxy-phenyl)-pyridine-3-carbonyl]-amino}-phenyl)-2-methyl-furan-3-carboxylic acid]",IC50,[1],480 µM
same,IC50,[2],234 µM
same,IC50,[3],278 µM
same,E-Selectin [Ratio],[4],0.61 Ratio
same,P-Selectin [Ratio],[5],1.26 Ratio
"COc1cc(OC)cc(-c2cccc(C(=O)Nc3ccccc3-c3ccc(CC(=O)O)s3)c2)c1 [Compound 81, (5-{2-[(3′,5′-Dimethoxy-biphenyl-3-carbonyl)-amino]-phenyl}-thiophen-2-yl)-acetic acid]",IC50,[2],35.3 µM
same,IC50,[3],131 µM
same,E-Selectin [Ratio],[4],1.27 Ratio
same,P-Selectin [Ratio],[5],1.55 Ratio
"COc1cc(OC)cc(-c2cccc(C(=O)Nc3ccccc3-c3ccc(C(=O)O)s3)c2)c1 [Compound 84, 5-{2-[(3′,5′-Dimethoxy-biphenyl-3-carbonyl)-amino]-phenyl}-thiophene-2-carboxylic acid]",IC50,[2],46.6 µM
same,IC50,[3],144 µM
same,E-Selectin [Ratio],[4],1.36 Ratio
same,P-Selectin [Ratio],[5],1.02 Ratio
